Laboratory results: patent publication US20060167098A1, “Method for the treatment of diseases linked to an accumulation of triglycerides and cholesterol” (Institut National De La Sante ET De LA Recherche Medicale …, priority 2003, published 2006)

What was measured:
[1] = Plasma glucose, insulin, adiponectin and leptin in lean mice, standard diet, 6 weeks, 48 hours fast; assay type: in vivo; details: 100 mg/kg/day 6 weeks, fasted 48 hours
Protocol: (§1) Plasma glucose was measured on an automatic analyser (Synchron LX20 from Beckman Coulter) with a commercial kit (kit n°472500 from Beckman).
Plasma insulin, adiponectin and leptin were measured by radioimmunoassay (RIA). Insulin was measured with the Insulin-CT kit from Cis Bio International (Gif-sur-Yvette, France), whereas plasma leptin and adiponectin were assessed with kits from Linco Research Inc. (St Charles, Mo.). Leptin was not measured in ob/ob mice since these animals are genetically leptin-deficient (Friedman J. M., Halaas J. L., 1998, Nature 395: 763-770). Results regarding insulin were expressed as recommended by kit manufacturer.
Glucose, insulin, adiponectine and leptin were assessed in lean mice fed with the standard diet and receiving (13 mice) or not (12 mice) 100 mg/kg/day of β-aminoisobutyric acid in the drinking water for 6 weeks.
At the end of the 6-weeks period of treatment, mice were submitted to a fasting period for 48 hours. Plasma glucose, insulin and adiponectin were not changed in treated mice, but a trend toward lower leptin levels was observed. Indeed, plasma leptin was 3.72±0.59 and 3.14±0.34 ng/ml, respectively in control mice (n=12) and mice treated with β-aminoisobutyric acid (n=13). Leptin is an adipokine mainly secreted by adipose tissue and its plasma levels in human and mice are highly correlated with the whole adipose tissue mass (Friedman J. M. and Hallas J. L., 1998, Nature 395: 763-770). Thus, data regarding plasma leptin are in keeping with the observation that β-aminoisobutyric acid limits body fat accumulation in lean mice.

[2] = Plasma glucose in lean mice, standard diet, 6 weeks, not fasted; assay type: in vivo; details: 100 mg/kg/day 6 weeks
Protocol: as §1
In a second series of experiments plasma glucose was assessed in lean mice fed with the standard diet and receiving (6 mice) or not (6 mice) 100 mg/kg/day of β-aminoisobutyric acid in the drinking water for 6 weeks, but at the end of the experiment, mice were not fasted. […] Indeed, plasma glucose was 11.5±0.8 and 10.7±0.4 mmol/L, respectively in control and treated mice.

CC(CN)C(=O)O (racemic) [BAIBA, D,L-β-Aminoisobutyric acid]
plasma adiponectin vs control [1]: not changed | plasma glucose vs control [1]: not changed | plasma insulin vs control [1]: not changed | plasma leptin [1]: 3.14 ± 0.34 ng/mL | plasma glucose [2]: 10.7 ± 0.4 mmol/L
